Results taken from PMC4775997, “Imidazopyridazine Inhibitors of Plasmodium falciparum Calcium-Dependent Protein Kinase 1 Also Target Cyclic GMP-Dependent Protein Kinase and Heat Shock Protein 90 To Kill the Parasite at Different Stages of Intracellular Development” (Antimicrobial Agents and Chemotherapy, 2016).
Read-outs that look alike come from different tables or passages of the source.

How the values were obtained:
[1] = target: T1, PfPKG (Plasmodium falciparum, UniProt Q8I719); assay: Microfluidic fluorescent shift assay of cGMP-dependent protein kinase activity; assay type: biochemical
T1 construct: plasmids (pTrcHisC) encoding full-length PfPKG and PfPKG T618Q with N-terminal His tags; His tag (N); made in house; host or cells: E. coli Rosetta2(DE3)

[2] = test system: P. falciparum 3D7; assay: Microscopic examination of Giemsa-stained smears (stage of action); details: for Stage of action (before or after DNA synthesis): Table S1, ring-stage parasites, 10x EC50 for 48 h; for Stage of action: ring stage parasites treated with 10 times the 96-h EC50 for 48 h
[3] = test system: P. falciparum 3D7; assay: SYBR green I growth assay, wild-type parasites; assay type: cell-based, Plasmodium falciparum; details: for EC5048/EC5096 ratio: Table 1
[4] = target: CDPK1 (Plasmodium falciparum, UniProt P62344); assay: biochemical; assay type: biochemical; details: read-out: Enzyme inhibition IC50, CDPK1
[5] = test system: 3D7 PKG T618Q; assay: microbe, parasite or virus in culture; assay type: cell-based, Plasmodium falciparum; details: for EC50: read-out: Parasite inhibition EC50, 3D7 PKG T618Q; for Ratio 3D7 PKG T618Q/3D7: Table S2
[6] = target: T2, PfPKG T618Q (Plasmodium falciparum, UniProt Q8I719, T618Q); assay: biochemical; assay type: biochemical
T2 construct: plasmids (pTrcHisC) encoding full-length PfPKG and PfPKG T618Q with N-terminal His tags; His tag (N); made in house; host or cells: E. coli Rosetta2(DE3)

[7] = read-out: Enzyme inhibition IC50, PKG
[8] = SYBR green I, 48 h incubation, mean of three independent experiments (SD), read-out: EC50 after treatment for 48 h
[9] = SYBR green I, 96 h incubation, mean of three independent experiments (SD), read-out: EC50 after treatment for 96 h
[10] = Table 2, SYBR green I, 96 h, single experiment, or mean (SD) of duplicate assays, read-out: Parasite inhibition EC50, 3D7
[11] = Table S1, single experiment with duplicate samples, or mean of triplicate experiments (SD), read-out: EC50 48 hours
[12] = Table 2, SYBR green I, 96 h, single experiment, or mean (SD) of duplicate assays
[13] = Table 2, ATP at Km 90 μM, read-out: Enzyme inhibition IC50, PKG T618Q
[14] = Table S1, single experiment with duplicate samples, or mean of triplicate experiments (SD), read-out: EC50 96 hours
[15] = Table S2, read-out: Enzyme inhibition IC50, PKG
[16] = Table S2, read-out: Enzyme inhibition IC50, PKG T618Q

CDPK1, sequence (P62344 whole entry): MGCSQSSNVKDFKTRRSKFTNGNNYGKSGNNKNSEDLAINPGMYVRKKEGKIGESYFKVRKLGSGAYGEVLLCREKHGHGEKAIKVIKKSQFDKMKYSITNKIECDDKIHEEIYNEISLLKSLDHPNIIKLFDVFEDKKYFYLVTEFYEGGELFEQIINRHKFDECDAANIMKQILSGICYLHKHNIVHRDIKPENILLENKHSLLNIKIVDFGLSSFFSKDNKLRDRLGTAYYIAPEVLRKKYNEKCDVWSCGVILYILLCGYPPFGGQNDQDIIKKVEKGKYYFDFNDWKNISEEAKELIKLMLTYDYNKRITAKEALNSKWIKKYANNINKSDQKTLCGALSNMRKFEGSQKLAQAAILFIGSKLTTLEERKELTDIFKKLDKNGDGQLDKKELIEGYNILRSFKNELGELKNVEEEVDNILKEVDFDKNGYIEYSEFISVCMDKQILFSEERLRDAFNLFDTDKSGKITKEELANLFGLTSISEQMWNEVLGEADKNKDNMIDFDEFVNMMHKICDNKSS
T2 sequence (Q8I719 whole entry T618Q): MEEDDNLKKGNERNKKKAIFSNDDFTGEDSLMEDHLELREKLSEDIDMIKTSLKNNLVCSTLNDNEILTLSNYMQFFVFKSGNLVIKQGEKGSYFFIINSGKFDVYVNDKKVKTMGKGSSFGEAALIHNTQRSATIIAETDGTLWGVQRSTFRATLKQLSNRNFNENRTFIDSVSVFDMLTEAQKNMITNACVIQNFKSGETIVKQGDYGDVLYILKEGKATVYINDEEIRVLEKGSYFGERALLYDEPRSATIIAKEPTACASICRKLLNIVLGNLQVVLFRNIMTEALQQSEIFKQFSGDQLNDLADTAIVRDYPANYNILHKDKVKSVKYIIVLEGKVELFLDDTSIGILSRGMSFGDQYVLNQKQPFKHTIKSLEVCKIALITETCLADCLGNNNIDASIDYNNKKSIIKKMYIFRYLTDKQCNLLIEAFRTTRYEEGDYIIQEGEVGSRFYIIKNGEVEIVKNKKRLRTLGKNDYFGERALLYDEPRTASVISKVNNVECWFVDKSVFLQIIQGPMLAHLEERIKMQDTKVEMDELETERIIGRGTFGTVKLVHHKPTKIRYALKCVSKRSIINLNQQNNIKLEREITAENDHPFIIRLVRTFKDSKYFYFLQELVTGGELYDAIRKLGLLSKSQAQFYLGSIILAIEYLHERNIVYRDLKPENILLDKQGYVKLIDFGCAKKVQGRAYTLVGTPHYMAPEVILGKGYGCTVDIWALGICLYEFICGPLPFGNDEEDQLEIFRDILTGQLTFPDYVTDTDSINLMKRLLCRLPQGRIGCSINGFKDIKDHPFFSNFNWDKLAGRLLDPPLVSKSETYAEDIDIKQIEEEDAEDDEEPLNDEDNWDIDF

SMILES: NC1CCC(Nc2ccc3ncc(-c4cnc(Nc5ccccn5)c(F)c4)n3n2)CC1 (centres unmarked) [Compound 20]
- IC50 [1]: 0.012 µM
- Stage of action (before or after DNA synthesis) [2]: trophozoite
- Stage of action [2]: Trophozoite
- EC50 ([3]; Plasmodium falciparum, 3D7, 48 h, read-out: EC50 48 hours): 0.3 µM
- EC50 ([3]; Plasmodium falciparum, 3D7, 48 h, read-out: EC50 after treatment for 48 h): 0.298 µM
- EC50 ([3]; Plasmodium falciparum, 3D7, 96 h, read-out: EC50 96 hours): 0.14 µM
- EC50 ([3]; Plasmodium falciparum, 3D7, 96 h, read-out: EC50 after treatment for 96 h): 0.142 µM
- EC50 ([3]; Plasmodium falciparum, 3D7, 96 h, read-out: Parasite inhibition EC50, 3D7): 0.21 µM
- EC5048/EC5096 ratio [3]: 2.1
- ratio EC5048:EC5096 ([3]; Table S1): 2.1
- IC50 ([4]; Table 2): 0.008 µM
- EC50 ([5]; Plasmodium falciparum, 3D7, 96 h): 0.386 µM
- 3D7 PKG T618Q/3D7 EC50 ratio ([5]; Table 2): 1.8
- Ratio 3D7 PKG T618Q/3D7 [5]: 2
- IC50 [6]: 15.3 µM

SMILES: CC(C)CCNc1ccc(-c2cnc3ccc(NC4CCN(C)C4)nn23)cn1 (centres unmarked) [Compound 22]
- IC50 [1, 7]: > 1 µM
- Stage of action (before or after DNA synthesis) [2]: trophozoite (before)
- Stage of action [2]: Trophozoite
- EC50 [3, 8]: 0.546 µM
- EC50 [3, 9]: 0.3 µM
- EC5048/EC5096 ratio [3]: 1.8
- EC50 [3, 10]: 0.215 µM
- ratio EC5048:EC5096 ([3]; Table S1): 1.8
- EC50 [3, 11]: 0.55 µM
- IC50 ([4]; Table 2): 0.074 µM
- 3D7 PKG T618Q/3D7 EC50 ratio ([5]; Table 2): 1.4
- EC50 [5, 12]: 0.303 µM
- Ratio 3D7 PKG T618Q/3D7 [5]: 1
- Selectivity (PKG T618Q/PKG IC50 ratio) ([6]; Table 2): <38
- IC50 [6, 13]: 37.5 µM

SMILES: Fc1cccnc1Nc1ncc(-c2cnc3ccc(NC4CCC(N5CCNCC5)CC4)nn23)cn1 (centres unmarked) [Compound 28]
- IC50 [1, 7]: 0.003 µM
- Stage of action (before or after DNA synthesis) [2]: late schizont (after)
- Stage of action [2]: Late schizont
- Stage of action ([2]; listed as Compound 28): arrest parasites in late schizogony
- EC50 [3, 8]: 0.168 µM
- EC50 [3, 9]: 0.038 µM
- EC5048/EC5096 ratio [3]: 4.4
- EC5048/EC5096 ratio ([3]; listed as Compound 28): less than 5
- EC50 [3, 10]: 0.059 µM
- ratio EC5048:EC5096 ([3]; Table S1): 4.4
- EC50 [3, 11]: 0.17 µM
- EC50 [3, 14]: 0.04 µM
- IC50 ([4]; Table 2): 0.012 µM
- 3D7 PKG T618Q/3D7 EC50 ratio ([5]; Table 2): 10.8
- EC50 [5, 12]: 0.64 µM
- Ratio 3D7 PKG T618Q/3D7 [5]: 11
- IC50 [6, 13]: 31.7 µM
- Selectivity PKG T618Q/PKG ([6]; Table S2): 12100

SMILES: CNc1ccc2ncc(-c3ccc(NCCC(C)C)nc3)n2n1 [Compound 42]
- EC50 [3, 10]: 0.836 µM
- IC50 ([4]; Table 2): 0.081 µM
- 3D7 PKG T618Q/3D7 EC50 ratio ([5]; Table 2): 1.5
- EC50 [5, 12]: 1.23 µM
- Ratio 3D7 PKG T618Q/3D7 [5]: 1

SMILES: CC(C)CNc1ncc(-c2cnc3ccc(NC4CCN(C)CC4)nn23)cn1 [Compound 44]
- EC90 ([3]; 3D7 parasites): 0.65 µM
- EC50 [3, 10]: 0.236 µM
- IC50 ([4]; Table 2): 0.065 µM
- 3D7 PKG T618Q/3D7 EC50 ratio ([5]; Table 2): 2.0
- EC50 [5, 12]: 0.477 µM
- Ratio 3D7 PKG T618Q/3D7 [5]: 2

SMILES: CN(C)C1CCN(c2ccc3ncc(-c4cnc(Nc5ncccc5F)nc4)n3n2)C1 (centres unmarked) [Compound 35]
- IC50 [1, 15]: 0.05 µM
- Stage of action (before or after DNA synthesis) [2]: late schizont
- Stage of action [2]: Late schizont
- EC50 [3, 8]: > 1000 µM
- EC50 [3, 9]: 0.809 µM
- EC5048/EC5096 ratio [3]: >1,000
- EC50 [3, 14]: 0.81 µM
- IC50 ([4]; Table S2): 0.017 µM
- Selectivity PKG T618Q/PKG ([6]; Table S2): 10653
- IC50 [6, 16]: 528 µM

SMILES: Fc1cc(-c2cnc3ccc(NC4CCNCC4)nn23)ccc1Nc1ccccn1 [Compound 21]
- IC50 [1, 15]: 0.087 µM
- ratio EC5048:EC5096 ([3]; Table S1): 2.4
- EC50 [3, 11]: 1.63 µM
- EC50 [3, 14]: 0.69 µM
- IC50 ([4]; Table S2): 0.01 µM
- Selectivity PKG T618Q/PKG ([6]; Table S2): 44
- IC50 [6, 16]: 3.77 µM

SMILES: CC(C)CCNc1ccc(-c2cnc3ccc(NC4CCNCC4)nn23)cn1 [Compound 11]
- IC50 [1, 15]: 0.256 µM
- ratio EC5048:EC5096 ([3]; Table S1): 1.6
- EC50 [3, 11]: 0.96 µM
- EC50 [3, 14]: 0.6 µM
- IC50 ([4]; Table S2): 0.015 µM
- Selectivity PKG T618Q/PKG ([6]; Table S2): 1000
- IC50 [6, 16]: 256 µM

SMILES: c1ccc(Nc2ncc(-c3cnc4ccc(NC5CCNCC5)nn34)cn2)nc1 [Compound 26]
- IC50 [1, 15]: 0.02 µM
- ratio EC5048:EC5096 ([3]; Table S1): 4.2
- EC50 [3, 11]: 0.83 µM
- EC50 [3, 14]: 0.2 µM
- IC50 ([4]; Table S2): 0.009 µM
- Selectivity PKG T618Q/PKG ([6]; Table S2): 161
- IC50 [6, 16]: 3.28 µM

SMILES: CN1CCC(CNc2ccc3ncc(-c4cnc(Nc5ncccc5F)nc4)n3n2)CC1 [Compound 38]
- IC50 [1, 7]: 0.004 µM
- Stage of action (before or after DNA synthesis) [2]: late schizont
- Stage of action [2]: Late schizont
- EC50 [3, 8]: > 1000 µM
- EC50 [3, 9]: 0.05 µM
- EC5048/EC5096 ratio [3]: >1,000
- EC50 [3, 10]: 0.073 µM
- IC50 ([4]; Table 2): 0.008 µM
- 3D7 PKG T618Q/3D7 EC50 ratio ([5]; Table 2): 11.8
- EC50 [5, 12]: 0.859 µM
- Ratio 3D7 PKG T618Q/3D7 [5]: 12
- IC50 [6, 13]: 43.5 µM
- Selectivity PKG T618Q/PKG ([6]; Table S2): 12187

SMILES: CC(C)CCNc1ncc(-c2cnc3ccc(NC4CCN(C)C4)nn23)cn1 (centres unmarked) [Compound 31]
- IC50 [1, 15]: 0.287 µM
- Stage of action (before or after DNA synthesis) [2]: late schizont
- Stage of action [2]: Late schizont
- EC50 [3, 8]: 1.66 µM
- EC50 [3, 9]: 0.238 µM
- EC5048/EC5096 ratio [3]: 7.0
- ratio EC5048:EC5096 ([3]; Table S1): 7.0
- EC50 [3, 11]: 1.66 µM
- EC50 [3, 14]: 0.24 µM
- IC50 ([4]; Table S2): 0.093 µM
- Selectivity PKG T618Q/PKG ([6]; Table S2): 21
- IC50 [6, 16]: 5.95 µM

SMILES: CN1CCC(Nc2ccc3ncc(-c4cc(F)c(Nc5ncccc5F)c(F)c4)n3n2)CC1 [Compound 8]
- IC50 [1, 15]: 0.237 µM
- ratio EC5048:EC5096 ([3]; Table S1): 1.5
- EC50 [3, 11]: 0.99 µM
- EC50 [3, 14]: 0.66 µM
- IC50 ([4]; Table S2): 0.017 µM
- Selectivity PKG T618Q/PKG ([6]; Table S2): 272
- IC50 [6, 16]: 64.6 µM
